{
  "source": "the supplement of paper PMC10307832",
  "assay_in_all_cases": "relative viability (nuclei count vs DMSO), 5 days (fraction); higher = more cells survive",
  "key": {"[1]": {"compound": "CC1=C(C=CC(=C1)[N+](=O)[O-])NS(=O)(=O)C2=C(C=CC(=C2)Cl)Cl [FH535]", "method_in_brief": "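Nuclei counted with MetaXpress define viability as the ratio of treated to vehicle wells, given as a median across plates. The lung cancer cell lines were in 1536-well plates, pinned with five √10-spaced library-drug doses and imaged at 4× after 5 days and Hoechst staining. Plates passed with control CV below 25% and at least one doubling.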"}, "[2]": {"compound": "CC1=C(C=CC(=C1)[N+](=O)[O-])NS(=O)(=O)C2=C(C=CC(=C2)Cl)Cl [FH535] + O=C(c1cc(Cc2n[nH]c(=O)c3ccccc23)ccc1F)N1CCN(C(=O)C2CC2)CC1 [Olaparib] (partner 8 µM)", "method_in_brief": "(§1)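 Relative viability equals treated-well nuclei counts divided by vehicle-well nuclei counts. Counts came from 4× images of lung cancer cell lines grown in 1536-well plates for 5 days after pin-tool dosing on the day after seeding. Dosing used one drug alone or a fixed anchor-drug dose plus five library-drug doses (not always all listed) in √10 steps, and values are medians of duplicate plates.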"}, "[3]": {"compound": "CC1=C(C=CC(=C1)[N+](=O)[O-])NS(=O)(=O)C2=C(C=CC(=C2)Cl)Cl [FH535] + CS(=O)(=O)N1CCN(Cc2cc3nc(-c4cccc5[nH]ncc45)nc(N4CCOCC4)c3s2)CC1 [Pictilisib] (partner 1 µM)", "method_in_brief": "as §1"}, "[4]": {"compound": "CC1=C(C=CC(=C1)[N+](=O)[O-])NS(=O)(=O)C2=C(C=CC(=C2)Cl)Cl [FH535] + COc1cc2c(Oc3ccc(NC(=O)C4(C(=O)Nc5ccc(F)cc5)CC4)cc3F)ccnc2cc1OCCCN1CCOCC1 [Foretinib] (partner 0.25 µM)", "method_in_brief": "as §1"}, "[5]": {"compound": "CC1=C(C=CC(=C1)[N+](=O)[O-])NS(=O)(=O)C2=C(C=CC(=C2)Cl)Cl [FH535] + CC1(C)CCC(c2ccc(Cl)cc2)=C(CN2CCN(c3ccc(C(=O)NS(=O)(=O)c4ccc(N[C@H](CCN5CCOCC5)CSc5ccccc5)c(S(=O)(=O)C(F)(F)F)c4)cc3)CC2)C1 [Navitoclax] (partner 0.5 µM)", "method_in_brief": "as §1"}, "[6]": {"compound": "CC1=C(C=CC(=C1)[N+](=O)[O-])NS(=O)(=O)C2=C(C=CC(=C2)Cl)Cl [FH535] + CS(=O)(=O)CCNCc1ccc(-c2ccc3ncnc(Nc4ccc(OCc5cccc(F)c5)c(Cl)c4)c3c2)o1 [Lapatinib] (partner 2 µM)", "method_in_brief": "as §1"}, "[7]": {"compound": "CC1=C(C=CC(=C1)[N+](=O)[O-])NS(=O)(=O)C2=C(C=CC(=C2)Cl)Cl [FH535] + Cc1nc(NC(=O)N2CCC[C@H]2C(N)=O)sc1-c1ccnc(C(C)(C)C(F)(F)F)c1 [Alpelisib] (partner 2 µM)", "method_in_brief": "as §1"}, "[8]": {"compound": "CC1=C(C=CC(=C1)[N+](=O)[O-])NS(=O)(=O)C2=C(C=CC(=C2)Cl)Cl [FH535] + C[C@]1(O)C[C@@H](c2nc(-c3ccc4ccc(-c5ccccc5)nc4c3)c3c(N)nccn32)C1 [Linsitinib] (partner 1 µM)", "method_in_brief": "as §1"}, "[9]": {"compound": "CC1=C(C=CC(=C1)[N+](=O)[O-])NS(=O)(=O)C2=C(C=CC(=C2)Cl)Cl [FH535] + CC(C)C[C@H](NC(=O)[C@H](Cc1ccccc1)NC(=O)c1cnccn1)B(O)O [Bortezomib] (partner 0.002 µM)", "method_in_brief": "as §1"}, "[10]": {"compound": "CC1=C(C=CC(=C1)[N+](=O)[O-])NS(=O)(=O)C2=C(C=CC(=C2)Cl)Cl [FH535] + C[C@@H](Oc1cc(-c2cnn(C3CCNCC3)c2)cnc1N)c1c(Cl)ccc(F)c1Cl [Crizotinib] (partner 1 µM)", "method_in_brief": "as §1"}},
  "data": [
    {"cell line": "NCI-H1299", "values": [
      {"measurement": "relative viability", "setting": "[1]; 0.04 µM", "result": 1.01},
      {"measurement": "relative viability", "setting": "[1]; 0.1265 µM", "result": 1.01},
      {"measurement": "relative viability", "setting": "[1]; 0.4 µM", "result": 1.02},
      {"measurement": "relative viability", "setting": "[1]; 1.265 µM", "result": 0.932},
      {"measurement": "relative viability", "setting": "[2]; first compound 0.04 µM", "result": 1.01},
      {"measurement": "relative viability", "setting": "[2]; first compound 0.1265 µM", "result": 1.03},
      {"measurement": "relative viability", "setting": "[2]; first compound 0.4 µM", "result": 0.973},
      {"measurement": "relative viability", "setting": "[2]; first compound 1.265 µM", "result": 0.777},
      {"measurement": "relative viability", "setting": "[3]; first compound 0.04 µM", "result": 0.736},
      {"measurement": "relative viability", "setting": "[3]; first compound 0.1265 µM", "result": 0.8},
      {"measurement": "relative viability", "setting": "[3]; first compound 0.4 µM", "result": 0.772},
      {"measurement": "relative viability", "setting": "[3]; first compound 1.265 µM", "result": 0.712},
      {"measurement": "relative viability", "setting": "[4]; first compound 0.04 µM", "result": 1.12},
      {"measurement": "relative viability", "setting": "[4]; first compound 0.1265 µM", "result": 1.07},
      {"measurement": "relative viability", "setting": "[4]; first compound 0.4 µM", "result": 1.12},
      {"measurement": "relative viability", "setting": "[4]; first compound 1.265 µM", "result": 1.03},
      {"measurement": "relative viability", "setting": "[5]; first compound 0.04 µM", "result": 1.04},
      {"measurement": "relative viability", "setting": "[5]; first compound 0.1265 µM", "result": 1.07},
      {"measurement": "relative viability", "setting": "[5]; first compound 0.4 µM", "result": 1.08},
      {"measurement": "relative viability", "setting": "[5]; first compound 1.265 µM", "result": 0.954},
      {"measurement": "relative viability", "setting": "[6]; first compound 0.04 µM", "result": 0.979},
      {"measurement": "relative viability", "setting": "[6]; first compound 0.1265 µM", "result": 0.947},
      {"measurement": "relative viability", "setting": "[6]; first compound 0.4 µM", "result": 0.963},
      {"measurement": "relative viability", "setting": "[6]; first compound 1.265 µM", "result": 0.76},
      {"measurement": "relative viability", "setting": "[7]; first compound 0.04 µM", "result": 1.05},
      {"measurement": "relative viability", "setting": "[7]; first compound 0.1265 µM", "result": 0.983},
      {"measurement": "relative viability", "setting": "[7]; first compound 0.4 µM", "result": 1.05},
      {"measurement": "relative viability", "setting": "[7]; first compound 1.265 µM", "result": 1.07},
      {"measurement": "relative viability", "setting": "[8]; first compound 0.04 µM", "result": 0.98},
      {"measurement": "relative viability", "setting": "[8]; first compound 0.1265 µM", "result": 0.978},
      {"measurement": "relative viability", "setting": "[8]; first compound 0.4 µM", "result": 0.957},
      {"measurement": "relative viability", "setting": "[8]; first compound 1.265 µM", "result": 0.927},
      {"measurement": "relative viability", "setting": "[9]; first compound 0.04 µM", "result": 1.03},
      {"measurement": "relative viability", "setting": "[9]; first compound 0.1265 µM", "result": 1.03},
      {"measurement": "relative viability", "setting": "[9]; first compound 0.4 µM", "result": 1.07},
      {"measurement": "relative viability", "setting": "[9]; first compound 1.265 µM", "result": 0.809},
      {"measurement": "relative viability", "setting": "[10]; first compound 0.04 µM", "result": 1},
      {"measurement": "relative viability", "setting": "[10]; first compound 0.1265 µM", "result": 0.932},
      {"measurement": "relative viability", "setting": "[10]; first compound 0.4 µM", "result": 0.966},
      {"measurement": "relative viability", "setting": "[10]; first compound 1.265 µM", "result": 0.876}
    ]}
  ]
}
